From patent US6153616A, “Triazoles as therapeutic agents for fungal infections” (Synphar Laboratories, Inc., priority 1998, dated 2000)
≈ marks a conversion by molar mass, not a printed value. Where two headings read alike, the source gives them in different places.

Key:
Candida albicans = assay: In vitro antifungal activity (minimum inhibitory concentration), Candida albicans; format: cell-based; conditions: 48 h at 37° C.
Procedure: (§1) The compounds of the present invention were evaluated in vitro for their antifungal activity and were assessed based on minimum inhibitory concentration of the test compound, i.e. the concentration of the test compound at which growth of particular organism fails to occur. […] The microorganisms used in this test include Candida albicans, C. tropicalis, C. kefyr, C. krusei, C. guilliermondii, C. glabrata, Cryptococcus neoformans, Aspergillus niger and A. fumigatus.

C. tropicalis = assay: In vitro antifungal activity (minimum inhibitory concentration), C. tropicalis; format: cell-based; conditions: Candida tropicalis, 48 h at 37° C.
Procedure: as §1

C. kefyr = assay: In vitro antifungal activity (minimum inhibitory concentration), C. kefyr; format: cell-based; conditions: Kluyveromyces marxianus, 48 h at 37° C.
Procedure: as §1

C. krusei = assay: In vitro antifungal activity (minimum inhibitory concentration), C. krusei; format: cell-based; conditions: Pichia kudriavzevii, 48 h at 37° C.
Procedure: as §1

C. guilliermondii = assay: In vitro antifungal activity (minimum inhibitory concentration), C. guilliermondii; format: cell-based; conditions: Meyerozyma guilliermondii, 48 h at 37° C.
Procedure: as §1

C. glabrata = assay: In vitro antifungal activity (minimum inhibitory concentration), C. glabrata; format: cell-based; conditions: Nakaseomyces glabratus, 48 h at 37° C.
Procedure: as §1

Cryptococcus neoformans = assay: In vitro antifungal activity (minimum inhibitory concentration), Cryptococcus neoformans; format: cell-based; conditions: 48 h at 37° C.
Procedure: as §1

Saccheromyces cerevisiae = assay: In vitro antifungal activity (minimum inhibitory concentration), Saccheromyces cerevisiae; format: cell-based
A. niger = assay: In vitro antifungal activity (minimum inhibitory concentration), A. niger; format: cell-based; conditions: Aspergillus niger, 48 h at 37° C.
Procedure: as §1

Aspergillus fumigatus = assay: In vitro antifungal activity (minimum inhibitory concentration), Aspergillus fumigatus; format: cell-based; conditions: 48 h at 37° C.
Procedure: as §1

C. albicans = assay: In vivo therapeutic efficacy, C. albicans systemic infection in mice; conditions: Candida albicans, oral, i.v. and s.c. routes, survival vs control, read-out: Therapeutic efficacy (ED50) in mice systemic infections
Procedure: (§2) Certain selected compounds were evaluated in-vivo for their antifungal efficacy. Series of doses of test compounds were administered by oral, i.v and s.c. routes to infected mice, i.e mice that are inoculated with a strain of Candida albicans or Aspergillus fumigatus. Efficacy of test compound was determined based on survival of treated mice compared to control. The in vivo efficacy was assessed based on ED50 of the test compound. The following table provides ED50 of certain compounds for systemic infections of C. albicans and A. fumigatus in mice models.

A. fumigatus = assay: In vivo therapeutic efficacy, A. fumigatus systemic infection in mice; conditions: Aspergillus fumigatus, oral, i.v. and s.c. routes, survival vs control, read-out: Therapeutic efficacy (ED50) in mice systemic infections
Procedure: as §2

filamentous fungi = conditions: background; cited from earlier work
[1] = background; cited from earlier work
[2] = background; cited from earlier work; remark: listed apart in the source
[3] = Saccheromyces cerevisiae, 48 h at 37° C., read-out: MIC

MIC (Candida albicans) [µg/mL] | MIC (C. tropicalis) [µg/mL] | MIC (C. kefyr) [µg/mL] | MIC (C. krusei) [µg/mL] | MIC (C. guilliermondii) [µg/mL] | MIC (C. glabrata) [µg/mL] | MIC (Cryptococcus neoformans) [µg/mL] | MIC (Saccheromyces cerevisiae; [3]) [µg/mL] | MIC (A. niger) [µg/mL] | MIC (Aspergillus fumigatus) [µg/mL] | SMILES | ED50 (C. albicans) [mg/kg] | ED50 (A. fumigatus) [mg/kg] | MIC (Saccheromyces cerevisiae; 48 h) [µg/mL] | activity against filamentous fungi (filamentous fungi) | bioavailability [1] | protein binding [2]
0.09 (≈ 0.167 µM) | 0.09 (≈ 0.167 µM) | 0.48 (≈ 0.891 µM) | 1.56 (≈ 2.9 µM) | 0.048 (≈ 0.0891 µM) | 0.78 (≈ 1.45 µM) | 0.48 (≈ 0.891 µM) | 0.19 (≈ 0.353 µM) | 3.12 (≈ 5.79 µM) | 0.78 (≈ 1.45 µM) | CC(C)n1ncn(-c2ccc(N3CCN([C@H](C)[C@](O)(Cn4cncn4)c4ccc(F)cc4F)CC3)cc2)c1=O [Example 41, (2R,3R)-2-(2,4-Difluorophenyl)-3-[4-{4-[2-(2-propyl)-2H-1,2,4-triazol-3-one-4-yl]phenyl}piperazin-1-yl]-1-(1H-1,2,4-triazol-1-yl)butan-2-ol] | 8.01 | 89.3 | – | – | – | –
0.09 (≈ 0.162 µM) | 0.09 (≈ 0.162 µM) | 0.048 (≈ 0.0865 µM) | 1.56 (≈ 2.81 µM) | 0.09 (≈ 0.162 µM) | 12.5 (≈ 22.5 µM) | 0.19 (≈ 0.343 µM) | 0.39 (≈ 0.703 µM) | 3.12 (≈ 5.63 µM) | 0.39 (≈ 0.703 µM) | CC(O)Cn1ncn(-c2ccc(N3CCN([C@H](C)[C@](O)(Cn4cncn4)c4ccc(F)cc4F)CC3)cc2)c1=O (stereo partly drawn) [Example 42, (2R,3R)-2-(2,4-Difluorophenyl)-3-[4-{4-[2-(2-hydroxypropyl)-2H-1,2,4-triazol-3-one-4-yl]phenyl}piperazin-1-yl]-1-(1H-1,2,4-triazol-1-yl)butan-2-ol] | > 90 | 71.1 | – | – | – | –
0.048 (≈ 0.0733 µM) | 0.048 (≈ 0.0733 µM) | 0.048 (≈ 0.0733 µM) | 0.09 (≈ 0.137 µM) | 0.09 (≈ 0.137 µM) | 0.78 (≈ 1.19 µM) | 0.048 (≈ 0.0733 µM) | 0.09 (≈ 0.137 µM) | 0.19 (≈ 0.29 µM) | 0.19 (≈ 0.29 µM) | C[C@@H](N1CCN(c2ccc(-n3cnn(Cc4ccc(C(F)(F)F)cc4)c3=O)cc2)CC1)[C@](O)(Cn1cncn1)c1ccc(F)cc1F [Example 43] | 1.57 | 42.3 | – | – | – | –
0.048 (≈ 0.0786 µM) | 0.048 (≈ 0.0786 µM) | 0.048 (≈ 0.0786 µM) | 0.09 (≈ 0.147 µM) | 0.048 (≈ 0.0786 µM) | 1.56 (≈ 2.56 µM) | 0.048 (≈ 0.0786 µM) | 0.048 (≈ 0.0786 µM) | 0.19 (≈ 0.311 µM) | 0.048 (≈ 0.0786 µM) | C[C@@H](N1CCN(c2ccc(-n3cnn(CC(F)(F)C(F)F)c3=O)cc2)CC1)[C@](O)(Cn1cncn1)c1ccc(F)cc1F [Example 44] | – | – | – | – | – | –
0.048 (≈ 0.0771 µM) | 0.048 (≈ 0.0771 µM) | 0.048 (≈ 0.0771 µM) | 0.19 (≈ 0.305 µM) | 0.048 (≈ 0.0771 µM) | 0.39 (≈ 0.626 µM) | 0.048 (≈ 0.0771 µM) | 0.09 (≈ 0.145 µM) | 0.09 (≈ 0.145 µM) | 0.048 (≈ 0.0771 µM) | C[C@@H](N1CCN(c2ccc(-n3cnn(Cc4ccc(F)cc4F)c3=O)cc2)CC1)[C@](O)(Cn1cncn1)c1ccc(F)cc1F [Example 46] | 56 | > 45 | – | – | – | –

Continued, compound first:

SMILES | MIC (Candida albicans) [µg/mL] | MIC (C. tropicalis) [µg/mL] | MIC (C. kefyr) [µg/mL] | MIC (C. krusei) [µg/mL] | MIC (C. guilliermondii) [µg/mL] | MIC (C. glabrata) [µg/mL] | MIC (Cryptococcus neoformans) [µg/mL] | MIC (Saccheromyces cerevisiae; [3]) [µg/mL] | MIC (A. niger) [µg/mL] | MIC (Aspergillus fumigatus) [µg/mL] | ED50 (C. albicans) [mg/kg] | ED50 (A. fumigatus) [mg/kg] | MIC (Saccheromyces cerevisiae; 48 h) [µg/mL] | activity against filamentous fungi (filamentous fungi) | bioavailability [1] | protein binding [2]
CCC(CC)n1ncn(-c2ccc(N3CCN([C@H](C)[C@](O)(Cn4cncn4)c4ccc(F)cc4F)CC3)cc2)c1=O [Example 36] | 0.09 (≈ 0.159 µM) | 0.09 (≈ 0.159 µM) | 0.048 (≈ 0.0847 µM) | 0.09 (≈ 0.159 µM) | 0.048 (≈ 0.0847 µM) | 0.09 (≈ 0.159 µM) | 0.048 (≈ 0.0847 µM) | 0.19 (≈ 0.335 µM) | 0.78 (≈ 1.38 µM) | 0.39 (≈ 0.688 µM) | 8.01 | > 45 | – | – | – | –
CCC(C)n1ncn(-c2ccc(N3CCN([C@H](C)[C@](O)(Cn4cncn4)c4ccc(F)cc4F)CC3)cc2)c1=O (stereo partly drawn) [Example 40, (2R,3R)-3-[4-{4-[2-(2-Butyl)-2H-1,2,4-triazol-3-one-4-yl]phenyl}piperazin-1-yl]2-(2,4-difluorophenyl)-1-(1H-1,2,4-triazol-1-yl)butan-2-ol] | 0.09 (≈ 0.163 µM) | 0.048 (≈ 0.0869 µM) | 0.048 (≈ 0.0869 µM) | 0.19 (≈ 0.344 µM) | 0.048 (≈ 0.0869 µM) | 0.39 (≈ 0.706 µM) | 0.48 (≈ 0.869 µM) | 0.09 (≈ 0.163 µM) | 0.78 (≈ 1.41 µM) | 0.39 (≈ 0.706 µM) | 4.68 | 67 | – | – | – | –
OC(Cn1cncn1)(Cn1cncn1)c1ccc(F)cc1F [Fluconazole, reference compound] | 0.78 (≈ 2.55 µM) | 0.39 (≈ 1.27 µM) | 0.39 (≈ 1.27 µM) | 50 (≈ 163 µM) | 1.56 (≈ 5.09 µM) | 12.5 (≈ 40.8 µM) | 1.56 (≈ 5.09 µM) | – | > 100 | > 100 | – | – | 6.25 (≈ 20.4 µM) | not active against filamentous fungi | – | –
CCC(C)n1ncn(-c2ccc(N3CCN(c4ccc(OCC5COC(Cn6cncn6)(c6ccc(Cl)cc6Cl)O5)cc4)CC3)cc2)c1=O (stereo not shown) [Itraconazole, reference compound] | 0.09 (≈ 0.128 µM) | 0.09 (≈ 0.128 µM) | 0.09 (≈ 0.128 µM) | 0.39 (≈ 0.553 µM) | 0.19 (≈ 0.269 µM) | 0.19 (≈ 0.269 µM) | 0.39 (≈ 0.553 µM) | 0.39 (≈ 0.553 µM) | 0.39 (≈ 0.553 µM) | 0.19 (≈ 0.269 µM) | – | – | – | active against filamentous fungi | less bioavailability | high protein binding
